Counter-ions that a name gives are not always drawn.
Structure (SMILES)	melting point [°C]
Cc1ncccc1-c1ccc2c(c1)-n1cccc1C(=O)N(C)C2C (stereo not drawn) (as salt: hydrochloride) [Example 218, 5,6-Dimethyl-9-(2-methyl-pyridin-3-yl)-5,6-dihydro-benzo[f]pyrrolo[1,2-a][1,4]diazepin-4-one]	140 to 156
Cc1ncccc1-c1ccc2c(c1)-n1cc(-c3ccccc3)nc1C(=O)N(C)C21CC1 (as salt: hydrochloride) [Example 140, 9-(2-Methyl-pyridin-3-yl)-5-methyl-2-phenyl-spiro[benzo[f]imidazo[1,2-a][1,4]diazepine-6,1′-cyclopropan]-4(5H)-one]	235 to 240
Cc1ncncc1-c1ccc2c(c1)-n1cccc1C(=O)N(C)C21CC1 (as salt: hydrochloride) [Example 59, 5-Methyl-9-(4-methyl-pyrimidin-5-yl)-spiro[benzo[f]pyrrolo[1,2-a][1,4]diazepine-6,1′-cyclopropan]-4(5H)-one]	140 to 147
Cc1ncccc1-c1cc(F)c2c(c1)-n1cccc1C(=O)N(C)C21CC1 (as salt: hydrochloride) [Example 73, 7-Fluoro-5-methyl-9-(2-methyl-pyridin-3-yl)-spiro[benzo[f]pyrrolo[1,2-a][1,4]diazepine-6,1′-cyclopropan]-4(5H)-one]	174 to 188
CCC1c2ccc(-c3cccnc3C)cc2-n2cccc2C(=O)N1C (stereo not drawn) (as salt: hydrochloride) [Example 220, 6-Ethyl-5-methyl-9-(2-methyl-pyridin-3-yl)-5,6-dihydro-benzo[f]pyrrolo[1,2-a][1,4]diazepin-4-one]	160 to 170
Cc1ccc(-c2ccc3c(c2)-n2cc(-c4ccccc4)cc2C(=O)N(C)C32CC2)c(C)n1 (as salt: hydrochloride) [Example 107, 5-Methyl-2-phenyl-9-(2,6-dimethyl-pyridin-3-yl)-spiro[benzo[f]pyrrolo[1,2-a][1,4]diazepine-6,1′-cyclopropan]-4(5H)-one]	206 to 214
CN1C(=O)c2cccn2-c2cc(-c3ccncc3)ccc2C12CC2 (as salt: hydrochloride) [Example 22, 5-Methyl-9-(pyridin-4-yl)-spiro[benzo[f]pyrrolo[1,2-a][1,4]diazepine-6,1′-cyclopropan]-4(5H)-one]	> 250
Cc1ncccc1-c1ccc2c(c1)-n1nccc1C(=O)N(C)C2 (as salt: hydrochloride) [Example 217, 5-Methyl-9-(2-methylpyridin-3-yl)-5,6-dihydro-4H-benzo[f]pyrazolo[1,5-a][1,4]diazepin-4-one]	120 to 140
Cc1ccncc1-c1ccc2c(c1)-n1cc(-c3ccccc3)cc1C(=O)N(C)C21CC1 (as salt: hydrochloride) [Example 101, 5-Methyl-2-phenyl-9-(4-methyl-pyridin-3-yl)-spiro[benzo[f]pyrrolo[1,2-a][1,4]diazepine-6,1′-cyclopropan]-4(5H)-one]	205 to 217
Cc1ncccc1-c1ccc2c(c1)-n1ccnc1C(=O)N(C)C2 (as salt: hydrochloride) [Example 216, 5-Methyl-9-(2-methylpyridin-3-yl)-5,6-dihydro-4H-benzo[f]imidazo[1,2-a][1,4]diazepin-4-one]	210 to 230
CN1C(=O)c2cc(C(=O)O)cn2-c2cc(-c3ccc(F)nc3)ccc2C12CC2 [Example 177, 5-Methyl-9-(6-fluoro-pyridin-3-yl)-4-oxo-4,5-dihydrospiro[benzo[f]pyrrolo[1,2-a][1,4]diazepine-6,1′-cyclopropane]-2-carboxylic acid]	> 250
CN(C)c1ccc(-c2ccc3c(c2)-n2cc(-c4ccccc4)cc2C(=O)N(C)C32CC2)cn1 (as salt: hydrochloride) [Example 114, 5-Methyl-2-phenyl-9-(6-dimethylamino-pyridin-3-yl)-spiro[benzo[f]pyrrolo[1,2-a][1,4]diazepine-6,1′-cyclopropan]-4(5H)-one]	200 to 208
CN1C(=O)c2cccn2-c2cc(-c3ccc(N4CCCCC4)nc3)ccc2C12CC2 (as salt: hydrochloride) [Example 43, 5-Methyl-9-(3,4,5,6-tetrahydro-2H-[1,2′]bipyridinyl-5′-yl)-spiro[benzo[f]pyrrolo[1,2-a][1,4]diazepine-6,1′-cyclopropan]-4(5H)-one]	188 to 193
Cc1ccc(-c2ccc3c(c2)-n2cc(-c4ccnn4C)cc2C(=O)N(C)C32CC2)cn1 (as salt: hydrochloride) [Example 159]	187 to 194
CN1Cc2ccc(-c3ccc(N)nc3)cc2-n2cc(-c3ccccc3)cc2C1=O (as salt: hydrochloride) [Example 165, 9-(6-Amino-pyridin-3-yl)-5-methyl-2-phenyl-5,6-dihydro-benzo[f]pyrrolo[1,2-a][1,4]diazepin-4-one]	> 250
Cc1ccc(-c2ccc3c(c2)-n2cc(-c4ccccc4)cc2C(=O)N(C)C32CC2)cn1 (as salt: hydrochloride) [Example 103, 5-Methyl-2-phenyl-9-(6-methyl-pyridin-3-yl)-spiro[benzo[f]pyrrolo[1,2-a][1,4]diazepine-6,1′-cyclopropan]-4(5H)-one]	200 to 215
CCCc1ncccc1-c1ccc2c(c1)-n1cccc1C(=O)N(C)C21CC1 (as salt: hydrochloride) [Example 61, 5-Methyl-9-(2-propylpyridin-3-yl)-spiro[benzo[f]pyrrolo[1,2-a][1,4]diazepine-6,1′-cyclopropan]-4(5H)-one]	150 to 157
CCc1ccc(-c2ccc3c(c2)-n2cc(-c4ccccc4)cc2C(=O)N(C)C32CC2)cn1 (as salt: hydrochloride) [Example 112, 5-methyl-2-phenyl-9-(6-ethylpyridin-3-yl)-spiro[benzo[f]pyrrolo[1,2-a][1,4]diazepine-6,1′-cyclopropan]-4(5H)-one]	209 to 212
[2H]C([2H])([2H])N1C(=O)c2cc(C(=O)O)cn2-c2cc(-c3ccc(F)nc3)ccc2C12CC2 [Example 178, 5-(Methyl-d3)-9-(6-fluoro-pyridin-3-yl)-4-oxo-4,5-dihydrospiro[benzo[f]pyrrolo[1,2-a][1,4]diazepine-6,1′-cyclopropane]-2-carboxylic acid]	> 250
CN1C(=O)c2cc(-c3ccccc3)cn2-c2cc(-c3cccnc3)ccc2C12CC2 (as salt: hydrochloride) [Example 93, 5-Methyl-2-phenyl-9-pyridin-3-yl-spiro[benzo[f]pyrrolo[1,2-a][1,4]diazepine-6,1′-cyclopropan]-4(5H)-one]	218 to 222
Cc1ncccc1-c1ccc2c(c1)-n1cc(-c3ccccc3)nc1C(=O)N(C)C2 (as salt: hydrochloride) [Example 166, 5-Methyl-9-(2-methylpyridin-3-yl)-2-phenyl-5,6-dihydro-4H-benzo[f]imidazo[1,2-a][1,4]diazepin-4-one]	240 to 245
CC1c2ccc(-c3ccc(N(C)C)nc3)cc2-n2cccc2C(=O)N1C (stereo not drawn) (as salt: hydrochloride) [Example 219, 9-(6-Dimethylamino-pyridin-3-yl)-5,6-dimethyl-5,6-dihydro-benzo[f]pyrrolo[1,2-a][1,4]diazepin-4-one]	145 to 162
CCc1ncccc1-c1ccc2c(c1)-n1cc(-c3ccccc3F)cc1C(=O)N(C)C21CC1 (as salt: hydrochloride) [Example 162]	189 to 195
Cc1ncccc1-c1cc2c(cc1F)C1(CC1)N(C)C(=O)c1cccn1-2 (as salt: hydrochloride) [Example 77, 8-Fluoro-5-methyl-9-(2-methyl-pyridin-3-yl)-spiro[benzo[f]pyrrolo[1,2-a][1,4]diazepine-6,1′-cyclopropan]-4(5H)-one]	200 to 210

Second part, the molecule after the results:

melting point [°C]	Structure (SMILES)
> 250	Cc1ncccc1-c1ccc2c(c1)-n1cc(-c3cccnc3)cc1C(=O)N(C)C21CC1 (as salt: hydrochloride) [Example 143]
165 to 175	CCc1cc2n(c1)-c1cc(-c3cccnc3C)ccc1C1(CC1)N(C)C2=O (as salt: hydrochloride) [Example 197]
240 to 250	Cc1ncccc1-c1ccc2c(c1)-n1cc(-c3cc[nH]n3)cc1C(=O)N(C)C21CC1 (as salt: hydrochloride) [Example 146]
165 to 176	Cc1ncccc1-c1ccc2c(c1)-n1cc(CC3CCCC3)cc1C(=O)N(C)C21CC1 (as salt: hydrochloride) [Example 196]
113 to 123	COCc1cc2n(c1)-c1cc(-c3ccc(C)nc3)ccc1C1(CC1)N(C)C2=O (as salt: hydrochloride) [Example 205]
226 to 230	Cc1ncccc1-c1ccc2c(c1)-n1cc(-c3ccc(F)cc3)cc1C(=O)N(C)C21CC1 (as salt: hydrochloride) [Example 150]
150 to 158	Cc1ncccc1-c1ccc2c(c1)-n1c(F)ccc1C(=O)N(C)C21CC1 (as salt: hydrochloride) [Example 81, 9-(2-Methyl-pyridin-3-yl)-1-fluoro-5-methyl-spiro[benzo[f]pyrrolo[1,2-a][1,4]diazepine-6,1′-cyclopropan]-4(5H)-one]
240 to 245	Cc1ncccc1-c1ccc2c(c1)-n1cc(-c3nccs3)cc1C(=O)N(C)C21CC1 (as salt: hydrochloride) [Example 157]
158 to 168	Cc1ncccc1-c1ccc2c(c1)-n1cc(-c3cnco3)cc1C(=O)N(C)C21CC1 (as salt: hydrochloride) [Example 182]
177 to 190	Cc1ncccc1-c1ccc2c(c1)-n1cc(C(=O)C3CCCC3)cc1C(=O)N(C)C21CC1 (as salt: hydrochloride) [Example 194]
174 to 180	Cc1ncccc1-c1ccc2c(c1)-n1cc(-c3ccccc3)cc1C(=O)N(C)C21CC1 (as salt: hydrochloride) [Example 95, 5-Methyl-2-phenyl-9-(2-methyl-pyridin-3-yl)-spiro[benzo[f]pyrrolo[1,2-a][1,4]diazepine-6,1′-cyclopropan]-4(5H)-one]
179 to 184	CCc1ncccc1-c1ccc2c(c1)-n1cc(C)cc1C(=O)N(C)C21CC1 (as salt: hydrochloride) [Example 199]
